“And” between values parts separate entries of the source, which are not always exact repeats. Equal entries are not always repeated. Toxic doses and inconclusive results are not listed. Rule as the data show it: active = T/C of 150% or more; inactive = T/C below 125%.
System: L1210 leukemia ip in BDF1 mice, survival T/C
Experiment: NCI In Vivo Anticancer Drug Screen. Data for tumor model L1210 Leukemia (intraperitoneal) in B6D2F1 (BDF1) mice
Settings: endpoint: mean survival time, higher = longer survival
How it was run: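 Transplanted-tumor mice were given test agent; controls received vehicle only. Survival readings from the two groups were divided (treated over control).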

Measured: T/C

CC(=O)NC1=C(N2CC2)C(=O)C(NC(C)=O)=C(N2CC2)C1=O
active: dose: 0.25 mg/kg/injection, schedule: Q01DX Z (ip), vehicle: saline 159 % of control | dose: 0.5 mg/kg/injection, schedule: Q01DX Z (ip), vehicle: saline 185 % of control and 201 % of control | dose: 0.96 mg/kg/injection, schedule: Q01DX Z (ip), vehicle: other 194 % of control | dose: 1.0 mg/kg/injection, schedule: Q01DX006 (iv), vehicle: saline 170 % of control | dose: 1.0 mg/kg/injection, schedule: Q01DX Z (ip), vehicle: carboxymethylcellulose (CMC) 155 % of control | dose: 1.0 mg/kg/injection, schedule: Q01DX Z (ip), vehicle: saline 164 % of control and 220 % of control | dose: 1.0 mg/kg/injection, schedule: Q01DX Z (sc), vehicle: saline 161 % of control | dose: 1.25 mg/kg/injection, schedule: Q01DX Z (ip), vehicle: carboxymethylcellulose (CMC) 164 % of control | dose: 1.5 mg/kg/injection, schedule: Q01DX Z (ip), vehicle: saline 163 % of control | dose: 2.0 mg/kg/injection, schedule: Q01DX006 (iv), vehicle: saline 168 % of control and 174 % of control | dose: 8.0 mg/kg/injection, schedule: Q01DX Z (oral), vehicle: saline 156 % of control and 175 % of control | dose: 8.0 mg/kg/injection, schedule: Q#A X Z (oral), vehicle: saline 152 % of control | dose: 28.0 mg/kg/injection, schedule: Q07DX003 (oral), vehicle: saline 153 % of control
inactive: dose: 0.01 mg/kg/injection, schedule: Q01DX Z (ip), vehicle: alkali diluted with saline 96 % of control | dose: 0.03 mg/kg/injection, schedule: Q01DX Z (ip), vehicle: alkali diluted with saline 96 % of control | dose: 0.06 mg/kg/injection, schedule: Q01DX006 (iv), vehicle: saline 113 % of control | dose: 0.06 mg/kg/injection, schedule: Q01DX Z (ip), vehicle: alkali diluted with saline 97 % of control and 105 % of control | dose: 0.06 mg/kg/injection, schedule: Q01DX Z (ip), vehicle: saline 113 % of control | dose: 0.12 mg/kg/injection, schedule: Q01DX Z (ip), vehicle: alkali diluted with saline 100 % of control and 102 % of control | dose: 0.12 mg/kg/injection, schedule: Q01DX Z (oral), vehicle: carboxymethylcellulose (CMC) 97 % of control | dose: 0.13 mg/kg/injection, schedule: Q01DX006 (iv), vehicle: saline 118 % of control | dose: 0.24 mg/kg/injection, schedule: Q01DX Z (ip), vehicle: alkali diluted with saline 109 % of control | dose: 0.25 mg/kg/injection, schedule: Q01DX006 (iv), vehicle: saline 108 % of control | dose: 0.25 mg/kg/injection, schedule: Q01DX Z (im), vehicle: saline 121 % of control | dose: 0.25 mg/kg/injection, schedule: Q01DX Z (oral), vehicle: carboxymethylcellulose (CMC) 101 % of control | dose: 0.25 mg/kg/injection, schedule: Q01DX Z (sc), vehicle: saline 102 % of control | dose: 0.38 mg/kg/injection, schedule: Q03DX005 (oral), vehicle: saline 111 % of control | dose: 0.38 mg/kg/injection, schedule: Q03DX006 (oral), vehicle: saline 106 % of control | dose: 0.48 mg/kg/injection, schedule: Q01DX Z (ip), vehicle: alkali diluted with saline 97 % of control | dose: 0.5 mg/kg/injection, schedule: Q01DX Z (oral), vehicle: carboxymethylcellulose (CMC) 100 % of control | dose: 0.75 mg/kg/injection, schedule: Q03DX005 (oral), vehicle: saline 111 % of control | dose: 0.75 mg/kg/injection, schedule: Q03DX006 (oral), vehicle: saline 109 % of control | dose: 0.9 mg/kg/injection, schedule: Q01DX001 (oral), vehicle: saline 103 % of control and 104 % of control and 108 % of control | dose: 0.9 mg/kg/injection, schedule: Q07DX002 (oral), vehicle: saline 108 % of control | dose: 0.9 mg/kg/injection, schedule: Q07DX003 (oral), vehicle: saline 101 % of control | dose: 0.96 mg/kg/injection, schedule: Q01DX Z (ip), vehicle: alkali diluted with saline 103 % of control | dose: 1.0 mg/kg/injection, schedule: Q01DX Z (oral), vehicle: carboxymethylcellulose (CMC) 109 % of control | dose: 1.0 mg/kg/injection, schedule: Q01DX Z (oral), vehicle: saline 121 % of control | dose: 1.0 mg/kg/injection, schedule: Q#A X Z (oral), vehicle: saline 115 % of control | dose: 1.5 mg/kg/injection, schedule: Q03DX005 (oral), vehicle: saline 108 % of control | dose: 1.5 mg/kg/injection, schedule: Q03DX006 (oral), vehicle: saline 124 % of control and 91 % of control | dose: 1.75 mg/kg/injection, schedule: Q01DX001 (oral), vehicle: saline 104 % of control and 111 % of control and 117 % of control | dose: 1.75 mg/kg/injection, schedule: Q07DX002 (oral), vehicle: saline 108 % of control | dose: 1.75 mg/kg/injection, schedule: Q07DX003 (oral), vehicle: saline 117 % of control | dose: 1.9 mg/kg/injection, schedule: Q01DX Z (ip), vehicle: alkali diluted with saline 101 % of control | dose: 1.9 mg/kg/injection, schedule: Q01DX Z (ip), vehicle: other 122 % of control | dose: 2.0 mg/kg/injection, schedule: Q01DX Z (im), vehicle: saline 113 % of control | dose: 2.0 mg/kg/injection, schedule: Q01DX Z (ip), vehicle: saline 116 % of control and 117 % of control | dose: 2.0 mg/kg/injection, schedule: Q01DX Z (oral), vehicle: saline 118 % of control | dose: 2.2 mg/kg/injection, schedule: Q01DX Z (ip), vehicle: carboxymethylcellulose (CMC) 103 % of control and 114 % of control | dose: 2.5 mg/kg/injection, schedule: Q01DX Z (ip), vehicle: carboxymethylcellulose (CMC) 117 % of control | dose: 3.0 mg/kg/injection, schedule: Q01DX Z (ip), vehicle: saline 106 % of control | dose: 3.0 mg/kg/injection, schedule: Q03DX006 (oral), vehicle: saline 94 % of control and 114 % of control | dose: 3.3 mg/kg/injection, schedule: Q01DX Z (ip), vehicle: carboxymethylcellulose (CMC) 101 % of control and 90 % of control | dose: 3.5 mg/kg/injection, schedule: Q01DX001 (oral), vehicle: saline 101 % of control and 105 % of control and 106 % of control | dose: 3.5 mg/kg/injection, schedule: Q07DX002 (oral), vehicle: saline 97 % of control | dose: 3.5 mg/kg/injection, schedule: Q07DX003 (oral), vehicle: saline 109 % of control | dose: 4.0 mg/kg/injection, schedule: Q01DX006 (iv), vehicle: saline 88 % of control | dose: 4.0 mg/kg/injection, schedule: Q01DX Z (sc), vehicle: saline 96 % of control | dose: 4.9 mg/kg/injection, schedule: Q01DX Z (ip), vehicle: carboxymethylcellulose (CMC) 90 % of control | dose: 6.0 mg/kg/injection, schedule: Q03DX005 (oral), vehicle: saline 103 % of control | dose: 6.0 mg/kg/injection, schedule: Q03DX006 (oral), vehicle: saline 124 % of control | dose: 7.0 mg/kg/injection, schedule: Q01DX001 (oral), vehicle: saline 106 % of control and 120 % of control | dose: 7.0 mg/kg/injection, schedule: Q07DX003 (oral), vehicle: saline 117 % of control | dose: 16.0 mg/kg/injection, schedule: Q01DX Z (oral), vehicle: saline 122 % of control | dose: 32.0 mg/kg/injection, schedule: Q01DX Z (oral), vehicle: saline 95 % of control | dose: 112.0 mg/kg/injection, schedule: Q07DX003 (oral), vehicle: saline 111 % of control | dose: 224.0 mg/kg/injection, schedule: Q01DX001 (oral), vehicle: saline 120 % of control | dose: 448.0 mg/kg/injection, schedule: Q01DX001 (oral), vehicle: saline 108 % of control | dose: 600.0 mg/kg/injection, schedule: Q01DX001 (oral), vehicle: saline 107 % of control | dose: 800.0 mg/kg/injection, schedule: Q01DX001 (oral), vehicle: saline 113 % of control | dose: 1000.0 mg/kg/injection, schedule: Q01DX001 (oral), vehicle: saline 110 % of control

— PubChem BioAssay AID248 (DTP/NCI, 2004)
